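The compound was tested at five concentrations on cells cultured in 96-well plates, with a 48-hour exposure period. Here, GI50 denotes the concentration required for 50% inhibition of growth. Definition used: TGI = concentration required for complete inhibition of growth.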
Key:
Experiment in all cases: inhibition of tumour cell growth, NCI panel, 48 h
[1] = tested on: 786-0 renal
[2] = tested on: A498 renal
[3] = tested on: A549 NSCLC
[4] = tested on: ACHN renal
[5] = tested on: BT-549 breast
[6] = tested on: CAKI-1 renal
[7] = tested on: CCRF-CEM leukemia
[8] = tested on: COLO 205 colon
[9] = tested on: DU-145 prostate
[10] = tested on: EKVX NSCLC
[11] = tested on: HCC-2998 colon
[12] = tested on: HCT-116 colon
[13] = tested on: HCT-15 colon
[14] = tested on: HL-60(TB) leukemia
[15] = tested on: HOP-62 NSCLC
[16] = tested on: HOP-92 NSCLC
[17] = tested on: HS 578T breast
[18] = tested on: HT29 colon
[19] = tested on: IGROV1 ovarian
[20] = tested on: K-562 leukemia
[21] = tested on: KM12 colon
[22] = tested on: LOX IMVI melanoma
[23] = tested on: M14 melanoma
[24] = tested on: MALME-3M melanoma
[25] = tested on: MCF7 breast
[26] = tested on: MDA-MB-231 breast
[27] = tested on: MDA-MB-435
[28] = tested on: MOLT-4 leukemia
[29] = tested on: NCI-H226 lung
[30] = tested on: NCI-H23 lung
[31] = tested on: NCI-H460 lung
[32] = tested on: NCI-H522 lung
[33] = tested on: NCI/ADR-RES ovarian
[34] = tested on: OVCAR-3 ovarian
[35] = tested on: OVCAR-4 ovarian
[36] = tested on: OVCAR-5 ovarian
[37] = tested on: OVCAR-8 ovarian
[38] = tested on: PC-3 prostate
[39] = tested on: RPMI-8226 leukemia
[40] = tested on: RXF 393 renal
[41] = tested on: SF-268 CNS
[42] = tested on: SF-295 CNS
[43] = tested on: SF-539 CNS
[44] = tested on: SK-MEL-2 melanoma
[45] = tested on: SK-MEL-28 melanoma
[46] = tested on: SK-MEL-5 melanoma
[47] = tested on: SK-OV-3 ovarian
[48] = tested on: SN12C renal
[49] = tested on: SNB-19 CNS
[50] = tested on: SNB-75 CNS
[51] = tested on: SR leukemia
[52] = tested on: SW-620 colon
[53] = tested on: T-47D breast
[54] = tested on: TK-10 renal
[55] = tested on: U251 CNS
[56] = tested on: UACC-257 melanoma
[57] = tested on: UACC-62 melanoma
[58] = tested on: UO-31 renal

`CC(=O)OCC1OC(OC2=C(CC=C(C)C)C(=O)c3ccccc3C2=O)C(OC(C)=O)C(OC(C)=O)C1OC(C)=O` (stereo unspecified) gave a GI50 [1] of 14.1 µM, a TGI [1] of 27.3 µM and a GI50 [2] greater than 33.6 µM. The TGI [2] was greater than 56.9 µM, the GI50 [3] was 10.4 µM and the TGI [3] was 40 µM. It also gave a GI50 [4] of 3.16 µM, a TGI [4] of 10.1 µM and a GI50 [5] of 2250 nM. It also gave a TGI [5] of 6.95 µM, a GI50 [6] of 6.55 µM and a TGI [6] of 17.7 µM. The GI50 [7] was 3.83 µM, the TGI [7] was greater than 100 µM and the GI50 [8] was 11.5 µM. The TGI [8] was 24.2 µM, the GI50 [9] was 10.9 µM and the TGI [9] was 22.9 µM. For the same compound, the GI50 [10] was 2810 nM, the TGI [10] was 11.6 µM and the GI50 [11] was 8.05 µM. For the same compound, the TGI [11] was 20.5 µM, the GI50 [12] was 1600 nM and the TGI [12] was 3.05 µM. For the same compound, the GI50 [13] was 3.91 µM, the TGI [13] was 18.1 µM and the GI50 [14] was 2910 nM. The TGI [14] was 6.62 µM, the GI50 [15] was 18 µM and the TGI [15] was 33.6 µM. For the same compound, the GI50 [16] was 1520 nM, the TGI [16] was 3.77 µM and the GI50 [17] was 5.21 µM. The TGI [17] was greater than 32.6 µM, the GI50 [18] was 15.3 µM and the TGI [18] was 36.7 µM. It also gave a GI50 [19] of 3.47 µM, a TGI [19] of 8.21 µM and a GI50 [20] of 2720 nM. It also gave a TGI [20] greater than 30.4 µM, a GI50 [21] of 2260 nM and a TGI [21] of 4.89 µM. For the same compound, the GI50 [22] was 2580 nM, the TGI [22] was 8.01 µM and the GI50 [23] was 5.67 µM. For the same compound, the TGI [23] was 18.2 µM, the GI50 [24] was 4.96 µM and the TGI [24] was 19.6 µM. It also gave a GI50 [25] of 2060 nM, a TGI [25] of 4.73 µM and a GI50 [26] of 2630 nM. For the same compound, the TGI [26] was 8.41 µM, the GI50 [27] was 2900 nM and the TGI [27] was 9.09 µM. For the same compound, the GI50 [28] was 2500 nM, the TGI [28] was 6.59 µM and the GI50 [29] was 5.58 µM. It also gave a TGI [29] of 28.3 µM, a GI50 [30] of 4.13 µM and a TGI [30] of 16.9 µM. The GI50 [31] was 4.12 µM, the TGI [31] was 15.5 µM and the GI50 [32] was 1880 nM. It also gave a TGI [32] of 4.85 µM, a GI50 [33] of 3.07 µM and a TGI [33] of 10.2 µM. It also gave a GI50 [34] of 1930 nM, a TGI [34] of 3.58 µM and a GI50 [35] of 2310 nM. It also gave a TGI [35] of 6.7 µM, a GI50 [36] of 4.57 µM and a TGI [36] of 16.2 µM. For the same compound, the GI50 [37] was 3.23 µM, the TGI [37] was 11.9 µM and the GI50 [38] was 1970 nM. For the same compound, the TGI [38] was 6.08 µM, the GI50 [39] was 2030 nM and the TGI [39] was 5.25 µM. The GI50 [40] was 3.76 µM, the TGI [40] was 8.32 µM and the GI50 [41] was 4.23 µM. For the same compound, the TGI [41] was 15.5 µM, the GI50 [42] was 3.67 µM and the TGI [42] was 12.7 µM. For the same compound, the GI50 [43] was 2840 nM, the TGI [43] was 9.9 µM and the GI50 [44] was 2460 nM. It also gave a TGI [44] of 5.67 µM, a GI50 [45] of 5.22 µM and a TGI [45] of 16.9 µM. For the same compound, the GI50 [46] was 2240 nM, the TGI [46] was 5.15 µM and the GI50 [47] was 12.9 µM. It also gave a TGI [47] of 25.9 µM, a GI50 [48] of 7.01 µM and a TGI [48] of 23.9 µM. For the same compound, the GI50 [49] was 6.28 µM, the TGI [49] was 16.2 µM and the GI50 [50] was 3.35 µM. For the same compound, the TGI [50] was 11.4 µM, the GI50 [51] was 3.55 µM and the TGI [51] was 51.1 µM. The GI50 [52] was 2780 nM, the TGI [52] was 9.18 µM and the GI50 [53] was 1930 nM. For the same compound, the TGI [53] was 4.24 µM, the GI50 [54] was 15.1 µM and the TGI [54] was 29.8 µM. It also gave a GI50 [55] of 2920 nM, a TGI [55] of 11.5 µM and a GI50 [56] of 3.75 µM. For the same compound, the TGI [56] was 10.3 µM, the GI50 [57] was 2450 nM and the TGI [57] was 7.15 µM. For the same compound, the GI50 [58] was 2680 nM and the TGI [58] was 10.7 µM.

Source: PubChem BioAssay (NCI)
